Tests used:
Format in all cases: functional, cell-based
HeLa = assay: Cytotoxicity against human HeLa cells assessed as decrease in cell survival after 72 hrs by MTT assay
Fem-X = assay: (§1) Cytotoxicity against human Fem-X cells assessed as decrease in cell survival after 72 hrs by MTT assay
[1] = as §1
MCF7 = assay: Cytotoxicity against human MCF7 cells assessed as decrease in cell survival after 72 hrs by MTT assay; settings: for IC50: MCF7, 72 h
LS174 = assay: (§2) Cytotoxicity against human LS174 cells assessed as decrease in cell survival after 72 hrs by MTT assay
[2] = as §2; settings: LS174, 72 h
PC-3 = assay: Cytotoxicity against human PC3 cells assessed as decrease in cell survival after 72 hrs by MTT assay; settings: for IC50: PC-3, 72 h
K562 = assay: Cytotoxicity against human K562 cells assessed as decrease in cell survival after 72 hrs by MTT assay; settings: for IC50: K562, 72 h

Compound | Activity (HeLa) | IC50 (HeLa; read-out: IC50) | IC50 (HeLa; read-out: pIC50 (converted)) | Activity (Fem-X) | IC50 ([1]; read-out: IC50) | IC50 ([1]; read-out: pIC50 (converted)) | Activity (MCF7) | IC50 (MCF7; read-out: IC50) | IC50 (MCF7; read-out: pIC50 (converted)) | Activity (LS174) | IC50 ([2]; read-out: IC50) | IC50 ([2]; read-out: pIC50 (converted)) | Activity (PC-3) | IC50 (PC-3; read-out: IC50) | IC50 (PC-3; read-out: pIC50 (converted)) | Activity (K562) | IC50 (K562; read-out: IC50) | IC50 (K562; read-out: pIC50 (converted))
O=C(/C=C/c1ccccc1Cl)c1ccccc1O | Dose-dependent effect | 11.2 µM | 11.2 µM | Dose-dependent effect | 10.4 µM | 10.4 µM | Dose-dependent effect | 29.8 µM | 29.8 µM | Dose-dependent effect | 32.2 µM | 32.2 µM | Dose-dependent effect | 20.1 µM | 20.1 µM | Dose-dependent effect | 9.8 µM | 9.8 µM
Cc1ccccc1/C=C/C(=O)c1ccccc1O | Dose-dependent effect | 14.7 µM | 14.7 µM | Dose-dependent effect | 22.4 µM | 22.4 µM | Dose-dependent effect | 37.7 µM | 37.7 µM | Dose-dependent effect | 48.8 µM | 48.8 µM | Dose-dependent effect | 19.2 µM | 19.2 µM | Dose-dependent effect | 18.5 µM | 18.5 µM
O=C(/C=C/c1ccc(F)cc1)c1ccccc1O | Dose-dependent effect | 22.6 µM | 22.6 µM | Dose-dependent effect | 21.8 µM | 21.8 µM | Dose-dependent effect | 26 µM | 26 µM | Dose-dependent effect | 35.3 µM | 35.3 µM | Dose-dependent effect | 30.4 µM | 30.4 µM | Dose-dependent effect | 17.9 µM | 17.9 µM
Cc1ccc(/C=C/C(=O)c2ccccc2O)cc1 | Dose-dependent effect | 20.6 µM | 20.6 µM | Dose-dependent effect | 21.2 µM | 21.2 µM | Dose-dependent effect | 33.9 µM | 33.9 µM | Dose-dependent effect | 41.2 µM | 41.2 µM | Dose-dependent effect | 27.6 µM | 27.6 µM | Dose-dependent effect | 18.9 µM | 18.9 µM

From ChEMBL document CHEMBL2375215, “Phenylpropiophenone derivatives as potential anticancer agents: synthesis, biological evaluation and quantitative structure-activity relationship study” (Eur J Med Chem, 2013)
